Literature values in US20100172990A1, “BIOCOMPATIBLE MICROGELS AND APPLICATIONS THEREOF” (UNIVERSIDAD DEL PAIS VASCO, priority 2007, published 2010).

Conditions: at 55° C.

solubility in water: approximately 88 g/L
Structure (SMILES): C=CN1CCCCCC1=O [VCL, N-vinylcaprolactam]
